# Laboratory results published in patent US20140259191A1, “FISH ANESTHETIC AND METHOD” (AQUA-MOR TECHNOLOGIES LTD., priority 2011, published 2014).
# Columns and labels:
# goldfish = assay: Anesthesia of goldfish by linalool or Ho Wood oil added to tank water; assay type: in vivo, Carassius auratus auratus
# Description: (§1) A one year old koi fish of body length 11 cm and which appeared to be healthy was placed in a 4 liter tank containing water at 25° C. and in which the water was circulated by means of aeration. A liquid a mixture containing 1 wt. % synthetic linalool (1 wt. % linalool, 5 wt. % 14R, 2 wt. % AF80 and 92 wt. % water) was added to the tank and manually mixed with the water so that the concentration of linalool in the water was 50 ppm. This was regarding as the starting time of the experiment; thereafter, observations were made regularly to determine the behavior of the fish in water. This continued until no response to external stimulation and complete loss of equilibrium were observed, at which point the fish was transferred to a recovery tank containing fresh water. The fish was placed near the air pump, and the time until the fish again swam and responded normally to external stimulation was recorded.
# The experiment of Example 1 was repeated, using a one year old goldfish of 8.5 cm body length. […] At 9.5 minutes the fish was removed to a recovery tank with clean water. Thereafter it recovered slowly and after 35 minutes was swimming around in the tank and appeared to have resumed normal activity.
# The experiment of Example 1 was repeated, using a one year old goldfish of 8.5 cm body length, and adding the linalool formulation to a linalool concentration in the water of 75 ppm instead of 50 ppm. After 2 minutes of exposure to linalool the fish appeared to be in stress. […] At 20 minutes the fish was removed to a recovery tank with clean water. Thereafter it recovered slowly and after 35 minutes was swimming around in the tank and appeared to have resumed normal activity. […]
# This example illustrates the effects of Linalool on Goldfish (cold water fish). The experiment was performed in a four liter tank with three 10-month old goldfish of respective weights 32 g, 30 g and 34 g and respective body lengths of 12.5 cm, 11.5 cm and 11 cm. The water temperature was 16° C. and the pH was 7. A formulation containing 1% Linalool was added to the water to a concentration of 50 ppm linalool in the water. The fish became relaxed 5 minutes after introduction of the linalool, and after 6 5 minutes there fish were completely anesthetized. After 20 minutes of exposure to linalool, the fish were removed to a recovery tank with fresh water. 15 minutes thereafter the fish had resumed normal behavior. […]
# The experiment of Example 1 was repeated, using two one-year old goldfish of respective body lengths 8.5 and 7.5 cm and respective weights of 17 and 15 g, and adding the a natural source of linalool (Ho Wood oil) to a concentration of 75 ppm linalool instead of 50 ppm. […] At 4 minutes the fish were removed to a recovery tank with clean water. After 5 minutes in the recovery tank they swam around and appeared to have resumed normal activity.
# The experiment of Example 21 was repeated, using two one-year old goldfish of respective body lengths 9 and 8 cm and respective weights 19 and 17.5 g, but adding Ho Wood oil to a linalool concentration of 50 ppm in the water. […] At 16.5 minutes the fish were removed to a recovery tank with clean water. After 4 minutes in the recovery tank they swam around and appeared to have resumed normal activity.
# Guppy fish = assay: Anesthesia of guppy fish by linalool or Ho Wood oil added to tank water; assay type: in vivo
# Description: as §1
# To a one liter tank containing five guppy fingerlings 21-30 days old of weight 0.010-0.014 g and body length 0.5 cm in water at 30° C. and pH 7 was added a formulation containing 92.5% linalool. The formulation was added to the water to a linalool concentration of 50 ppm in the water. The fish became relaxed 5 minutes after addition of linalool and after 7 minutes were completely anesthetized. At 10 minutes the fish were removed to a recovery tank with fresh water. After two minutes in the recovery tank the fish resumed normal behavior.
# The experiment of Example 21 was repeated, using four 10-month old Guppy fish of respective body lengths 3, 3.5, 4 and 3 cm, and adding the Ho Wood oil to a linalool concentration of 50 ppm in the water. […] At 14.5 minutes the fish were removed to a recovery tank with clean water. After two minutes in the recovery tank they swam around and appeared to have resumed normal activity.
# The experiment of Example 21 was repeated, using four 10-month old Guppy fish of respective body lengths 4, 3.5, 3.5 and 3 cm, and adding the Ho Wood oil to a linalool concentration in the water of 75 ppm instead 50 ppm. […]
# cyprinus carpio = assay: Three-hour sedation of carp with 30 ppm linalool; assay type: in vivo
# Description: Three cyprinus carpio of 140 g average weight, each in a tank of 20 L water at 25° C., were exposed to linalool, added to each tank in a formulation containing 20 wt. % linalool, 5 wt. % Alkamuls 14/R (a non-ionic surfactant added as an emulsifier), 70 wt. % propylene glycol and 5 wt. % ethanol to a linalool concentration of 30 ppm in the water. Specimens were observed every 30 minutes after addition of linalool. […] After removal to a tank of untreated water, each of the fish returned to their initial state within five minutes.
# common carp = assay: Five-hour sedation of common carp, linalool versus 2-phenoxyethanol; assay type: in vivo; conditions: linalool 40 ppm; for Number of fish exhibiting loss of upright position: 26° C.
# Description: 2-Phenoxyethanol (2-PE) is used to sedate fish in vaccinations procedures for relatively long periods of time (3 hours). 35 common carp were placed in each of two 60-liter tanks containing water at 26° C. Into one tank was added linalool (in a formulation as described in Example 28) to a concentration of 40 ppm; into the other tank was added 2-PE to a concentration of 200 ppm. Sedation of fish was determined by observation of loss of upright position, operculum movement and response to stimulus (handling). Total exposure time was five hours, at the end of which the fish were transferred 60-liter recovery tanks containing untreated water.
# [1] = Example 4: goldfish 8.5 cm, 50 ppm linalool in water
# [2] = Example 5: goldfish 8.5 cm, 75 ppm linalool in water
# [3] = Example 6: goldfish 8 cm, 100 ppm linalool in water
# [4] = Example 11: three goldfish 25-27.5 g, 100 ppm linalool
# [5] = Example 17: five guppy fingerlings, 50 ppm linalool (formulation containing 92.5% linalool), 30° C., pH 7
smiles,measurement,setting,value
C=CC(C)(O)CCC=C(C)C (centres unmarked) [linalool],time of exposure until complete loss of equilibrium,goldfish; [1],6.5 min
same,time of exposure until no response to external stimulation,goldfish; [1],9 min
same,time of exposure until partial loss of equilibrium,goldfish; [1],5 min
same,time in recovery tank until normal activity resumed,"goldfish; Example 4: goldfish 8.5 cm, 50 ppm linalool, removed to clean water at 9.5 minutes",35 min
same,time of exposure until complete loss of equilibrium,goldfish; [2],5 min
same,time of exposure until no response to external stimulation,goldfish; [2],9 min
same,time of exposure until partial loss of equilibrium,goldfish; [2],2.5 min
same,time in recovery tank until normal activity resumed,"goldfish; Example 5: goldfish 8.5 cm, 75 ppm linalool, removed to clean water at 20 minutes",35 min
same,time of exposure until complete loss of equilibrium,goldfish; [3],2 min
same,time of exposure until no response to external stimulation,goldfish; [3],3.5 min
same,time of exposure until partial loss of equilibrium,goldfish; [3],1.5 min
same,time in recovery tank until normal activity resumed,"goldfish; Example 6: goldfish 8 cm, 100 ppm linalool, removed to clean water at 4 minutes",35 min
same,mortality during a further three days of observation,"goldfish; Example 7: three goldfish, average 12.5 cm, experiment of Example 1 repeated",no mortality occurred
same,time in recovery tank until normal behavior resumed,"goldfish; Example 9: goldfish, 50 ppm linalool, 16° C., removed after 20 minutes of exposure",15 min
same,time after introduction of linalool until fish became relaxed,"goldfish; Example 9: three goldfish 30-34 g, 50 ppm linalool, 16° C., pH 7",5 min
same,time in recovery tank until normal behavior resumed,"goldfish; Example 10: goldfish, 75 ppm linalool, 16° C., removed at 20 minutes",35 min
same,time until fish completely anesthetized,"goldfish; Example 10: three goldfish 25-27 g, 75 ppm linalool, 16° C., pH 7",5 min
same,time in recovery tank until normal behavior resumed,"goldfish; Example 11: goldfish, 100 ppm linalool, removed at 4 minutes",20 min
same,time after addition of linalool until fish became relaxed,goldfish; [4],1.5 min
same,time until fish completely anesthetized,goldfish; [4],2 min
same,time after addition of linalool until fish became relaxed,Guppy fish; [5],5 min
same,time until fish completely anesthetized,Guppy fish; [5],7 min
same,time in recovery tank until normal behavior resumed,"Guppy fish; Example 17: guppy fingerlings, 50 ppm linalool, removed at 10 minutes",two
same,time in untreated water until return to initial state,"cyprinus carpio; Example 28: carp 140 g, after three-hour exposure",five
same,handling state of the fish,"cyprinus carpio; Example 28: three carp 140 g, 25° C., at 30 minutes after exposure and for the duration of the three-hour exposure",easy to handle
same,Number of fish exhibiting loss of upright position,"common carp; 35 common carp per tank, 2-PE 200 ppm, time 10:30 (start), aeration",0
same,Number of fish exhibiting loss of upright position,"common carp; 35 common carp per tank, 2-PE 200 ppm, time 11:00 (start 10:30), no aeration",2
same,Number of fish exhibiting loss of upright position,"common carp; 35 common carp per tank, 2-PE 200 ppm, time 11:40 (start 10:30), no aeration",9
same,Number of fish exhibiting loss of upright position,"common carp; 35 common carp per tank, 2-PE 200 ppm, time 12:35 (start 10:30), no aeration",16
same,Number of fish exhibiting loss of upright position,"common carp; 35 common carp per tank, 2-PE 200 ppm, time 13:35 (start 10:30), no aeration",17
same,Number of fish exhibiting loss of upright position,"common carp; 35 common carp per tank, 2-PE 200 ppm, time 14:30 (start 10:30), aeration",20
same,Number of fish exhibiting loss of upright position,"common carp; 35 common carp per tank, 2-PE 200 ppm, time 15:30 (start 10:30), aeration",16
same,survival at transfer to recovery tank,"common carp; 35 common carp per tank, 2-PE 200 ppm, after five hours exposure",All alive
same,reflex response over the 5 hours of exposure,"common carp; common carp, 2-PE 200 ppm",reduced from the beginning of the trial and remained at the same level of reflex throughout the 5 hours of exposure
same,sedative effect between 3 and 5 hours of exposure,"common carp; common carp, 2-PE 200 ppm",maintained
same,recovery after placement in a recovery tank,"common carp; common carp, 2-PE 200 ppm, after five hours exposure",recovered quickly in few minutes and did not show signs of stress
same,response to external stimulation during the first 3 hours,"common carp; common carp, 2-PE 200 ppm, sedation levels enabled handling",did not respond to external stimulation
same,loss of reflex reactivity,"common carp; common carp, in contrast to 2-PE",did not completely lose reflex reactivity
